# Patent publication US20080009479A1, “Tetrahydrobenzazepines as Histamine H3 Receptor Ligands” (GLAXO GROUP LIMITED, priority 2004, published 2008)
# Assays:
# [1] = target: T1, human histamine H3 receptor (Homo sapiens, UniProt Q9Y5N1); experiment: Histamine H3 functional antagonist assay (method C); type: biochemical; conditions: [35S]GTPγS LeadSeeker SPA, CHO membranes, histamine at EC80, 384 well, compound in DMSO; read-out: antagonism pKb, histamine H3 functional antagonist assay (method C) (converted)
# T1 construct: expressed in transfected cells; host or cells: CHO K1 cells carrying the pSwitch regulatory plasmid, transfected with pGeneH3 and induced with mifepristone; clone 3H3; membranes prepared from these cells
# Excerpt: (§1) A membrane preparation containing histamine H3 receptors may be prepared in accordance with the following procedures:
# (§2) DNA encoding the human histamine H3 gene (Huvar, A. et al. (1999) Mol. Pharmacol. 55(6), 1101-1107) was cloned into a holding vector, pCDNA3.1 TOPO (InVitrogen) and its cDNA was isolated from this vector by restriction digestion of plasmid DNA with the enzymes BamH1 and Not-1 and ligated into the inducible expression vector pGene (InVitrogen) digested with the same enzymes. The GeneSwitch™ system (a system where in transgene expression is switched off in the absence of an inducer and switched on in the presence of an inducer) was performed as described in U.S. Pat. Nos. 5,364,791; 5,874,534; and 5,935,934. […]
# (§3) 10-14 days post selection 10 nM Mifepristone (InVitrogen), was added to the culture medium to induce the expression of the receptor. […] Receptor bound antibody was detected by incubation of the cells for 60 minutes on ice with a goat anti rabbit antibody, conjugated with Alexa 488 fluorescence marker (Molecular Probes). Following two further washes with Sorting Medium, cells were filtered through a 50 μm Filcon™ (BD Biosciences) and then analysed on a FACS Vantage SE Flow Cytometer fitted with an Automatic Cell Deposition Unit. […]
# [2] = target: T1, human histamine H3 receptor; experiment: Histamine H3 functional antagonist assay (method B); type: biochemical; conditions: [35S]GTPγS LeadSeeker SPA, CHO membranes, histamine at EC80, 384 well; read-out: antagonism pKb, histamine H3 functional antagonist assay (method B) (converted)
# Excerpt: as §1
# DNA encoding the human histamine H3 gene (Huvar, A. et al. (1999) Mol. Pharmacol. 55(6), 1101-1107) was cloned into a holding vector, pCDNA3.1 TOPO (InVitrogen) and its cDNA was isolated from this vector by restriction digestion of plasmid DNA with the enzymes BamH1 and Not-1 and ligated into the inducible expression vector pGene (InVitrogen) digested with the same enzymes. The GeneSwitch™ system (a system where in transgene expression is switched off in the absence of an inducer and switched on in the presence of an inducer) was performed as described in U.S. Pat. Nos. 5,364,791; 5,874,534; and 5,935,934. Ligated DNA was transformed into competent DH5α E. coli host bacterial cells and plated onto Luria Broth (LB) agar containing Zeocin™ (an antibiotic which allows the selection of cells expressing the sh ble gene which is present on pGene and pSwitch) at 50 μg ml^−1. Colonies containing the re-ligated plasmid were identified by restriction analysis. DNA for transfection into mammalian cells was prepared from 250 ml cultures of the host bacterium containing the pGeneH3 plasmid and isolated using a DNA preparation kit (Qiagen Midi-Prep) as per manufacturers guidelines (Qiagen). […]
# as §3
# [3] = target: T1, human histamine H3 receptor; experiment: Histamine H3 functional antagonist assay (method A); type: biochemical; conditions: [35S]GTPγS SPA, CHO membranes, histamine 0.3 μM, 96 well
# Excerpt: as §1, §2, §3
# human H1 receptor = target: T2, human H1 receptor (Homo sapiens, UniProt P35367); experiment: Histamine H1 functional antagonist assay (method A); type: cell-based; conditions: FLIPR, FLUO4AM, suppression of histamine induced increase in fluorescence; read-out: antagonism pKb, histamine H1 functional antagonist assay (method A) (converted)
# T2 construct: expressed in transfected cells; host or cells: Chinese hamster ovary cells stably expressing the human H1 receptor
# Experimental: A histamine H1 cell line may be generated in accordance with the following procedure:
# The human H1 receptor was cloned using known procedures described in the literature [Biochem. Biophys. Res. Commun. 1994, 201(2), 894]. Chinese hamster ovary cells stably expressing the human H1 receptor were generated according to known procedures described in the literature [Br. J. Pharmacol. 1996, 117(6), 1071].
# (IV) Histamine H1 Functional Antagonist Assay (Method A)
# The compound is assayed in a black walled clear bottom 384-well plate with cells seeded at 10000 cells/well. Tyrodes buffer is used throughout (NaCl 145 mM, KCl 2.5 mM, HEPES 10 mM, glucose 10 mM, MgCl2 1.2 mM, CaCl2 1.5 mM, probenecid 2.5 mM, pH adjusted to 7.40 with NaOH 1.0 M). Each well is treated with 10 μl of a solution of FLUO4AM (10 μM in Tyrodes buffer at pH 7.40) and plates are then incubated for 60 minutes at 37° C. Wells are then washed with Tyrodes buffer using a EMBLA cell washer system, leaving 40 μl buffer in each well, and then treated with 10 μl of test compound in Tyrodes buffer. […]
# Functional antagonism is indicated by a suppression of histamine induced increase in fluorescence, as measured by the FLIPR system (Molecular Devices). By means of concentration effect curves, functional potencies are determined using standard pharmacological mathematical analysis.
# T1 sequence (Q9Y5N1 whole entry): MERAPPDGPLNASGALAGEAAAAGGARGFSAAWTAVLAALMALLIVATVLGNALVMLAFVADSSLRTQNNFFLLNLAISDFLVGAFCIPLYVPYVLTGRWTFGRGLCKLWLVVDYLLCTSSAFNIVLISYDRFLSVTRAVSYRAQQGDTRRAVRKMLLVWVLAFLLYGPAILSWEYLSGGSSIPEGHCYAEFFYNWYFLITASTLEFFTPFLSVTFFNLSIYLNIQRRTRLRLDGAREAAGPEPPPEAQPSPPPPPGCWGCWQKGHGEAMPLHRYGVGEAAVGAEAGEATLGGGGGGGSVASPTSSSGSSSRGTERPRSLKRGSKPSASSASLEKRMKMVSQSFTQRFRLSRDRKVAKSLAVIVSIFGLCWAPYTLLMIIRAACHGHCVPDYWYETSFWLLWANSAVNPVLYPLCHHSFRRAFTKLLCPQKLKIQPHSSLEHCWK
# T2 sequence (P35367 whole entry): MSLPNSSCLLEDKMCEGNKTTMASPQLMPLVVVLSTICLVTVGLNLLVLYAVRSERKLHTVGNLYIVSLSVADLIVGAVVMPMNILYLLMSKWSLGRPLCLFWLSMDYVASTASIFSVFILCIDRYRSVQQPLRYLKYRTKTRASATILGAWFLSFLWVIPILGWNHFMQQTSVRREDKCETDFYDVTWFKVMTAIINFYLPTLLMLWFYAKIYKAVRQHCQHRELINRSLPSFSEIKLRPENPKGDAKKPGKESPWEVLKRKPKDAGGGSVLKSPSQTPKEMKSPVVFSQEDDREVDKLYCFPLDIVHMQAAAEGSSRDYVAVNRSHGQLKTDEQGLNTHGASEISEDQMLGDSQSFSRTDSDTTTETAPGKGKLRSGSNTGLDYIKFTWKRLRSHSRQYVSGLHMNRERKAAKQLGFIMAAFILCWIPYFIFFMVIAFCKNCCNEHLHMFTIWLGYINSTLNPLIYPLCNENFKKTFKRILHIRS
Kb [1],Kb [2],SMILES,other results
< 1 nM,< 1 nM,"O=C1CCCN1c1cnc(Oc2ccc3c(c2)CCN(CC2CC2)CC3)cn1 [Example E1, 1-(5-{[3-(Cyclopropylmethyl)-2,3,4,5-tetrahydro-1H-3-benzazepin-7-yl]oxy}-2-pyrazinyl)-2-pyrrolidinone]",–
–,< 1 nM,"O=C1CCCN1c1ccc(Oc2ccc3c(c2)CCN(CC2CC2)CC3)nc1 [Example E13, 1-(6-{[3-(Cyclopropylmethyl)-2,3,4,5-tetrahydro-1H-3-benzazepin-7-yl]oxy}-3-pyridinyl)-2-pyrrolidinone]",–
–,< 1 nM,"CCN1CCc2ccc(Oc3ccc(N4CCCC4=O)cn3)cc2CC1 [Example E14, 1-{6-[(3-Ethyl-2,3,4,5-tetrahydro-1H-3-benzazepin-7-yl)oxy]-3-pyridinyl}-2-pyrrolidinone]",–
< 1 nM,–,"CCC(C)N1CCc2ccc(Oc3ccc(N4CCCC4=O)cn3)cc2CC1 (centres unmarked) [Example E15, 1-(6-{[3-(1-Methylpropyl)-2,3,4,5-tetrahydro-1H-3-benzazepin-7-yl]oxy}-3-pyridinyl)-2-pyrrolidinone]",–
–,–,"c1ccc(COc2ccc3c(c2)CCN(CC2CC2)CC3)cc1 [Example E19, 3-(Cyclopropylmethyl)-7-[(phenylmethyl)oxy]-2,3,4,5-tetrahydro-1H-3-benzazepine]","Kb ([3]; antagonism pKb, histamine H3 functional antagonist assay (method A)): < 10 nM; Kb (human H1 receptor): > 316 nM"
–,–,"c1cc2c(cc1OCCCC1CCCCC1)CCN(CC1CC1)CC2 [Example E20, 7-[(3-Cyclohexylpropyl)oxy]-3-(cyclopropylmethyl)-2,3,4,5-tetrahydro-1H-3-benzazepine]","Kb ([3]; read-out: antagonism pKb, histamine H3 functional antagonist assay (method A) (converted)): < 100 nM"
